Patent publication US12144823B2, “Porous silicate and/or aluminosilicate matrix/cerium oxide nanoparticle nanocarrier for combination anti-cancer therapeutic and antioxidant delivery” (Imam Abdulrahman Bin Faisal University, priority 2022, dated 2024)
“Also recorded” adds a separate entry of the source.

Legend:
[1] = test system: HFF-1 (Human Foreskin Fibroblasts) cells; assay: Cytotoxicity assay by MTT, HFF-1 cells; assay type: cell-based
Experimental: (§1) MCF-7 (Human Breast Cancer) and HFF-1 (Human Foreskin Fibroblasts) cell lines were sub-cultured in DMEM (Dullbecco's Modified Eagle Medium) supplemented with 1% of L-Glutamine, 10% of Fetal Bovine Serum as FBS (Gibco), 1% of Non-Essential Amino Acid (Gibco), and 1% of penicillin and streptomycin. The cells were cultured in a humidified CO2 incubator at 37° C. (Thermoscientific, Waltham, MA). The cells were seeded for in a 96 well plate (Thermo Fisher, Waltham, USA) with 10,000 cells per well. […] The cells were tested after 24, 48 and 72 hours using (Thiazolyl Blue Tetrazolium Bromide, MOLEQULE-ON) MTT assay.
(§2) Cultured media along with NPs were removed from 96 well plates and the cells were washed with 1×PBS.
(§3) The statistical analysis was done for determining the MTT cytotoxicity assay, using an unpaired two-way ANOVA (GraphPad Prism software), P-value is set at <0.05 (* if P≤0.05, ** if P≤0.01, *** if P≤0.001, **** if P≤0.0001) were considered statistically significant. The results were calculated from different three experiments.

[2] = test system: MCF-7 (Human Breast Cancer) cells; assay: Cytotoxicity assay by MTT, MCF-7 cells; assay type: cell-based
Experimental: as §1, §2, §3
The cytotoxicity study was performed to evaluate the toxicity of CeO2 nanoparticles against breast cancer cell line (MCF-7) and a non-cancerous cell line of human foreskin fibroblast (HFF-1). Different concentrations were applied (see Table 1) for 24, 48 and 72 hours, then, cytotoxicity was measured by MTT assay after each period of treatment. The data were plotted in scattered graphs using excel to calculate the EC50 values from the exponential trendline generated equation. The statistical significance with the p value and standard deviation were analyzed by two-way ANOVA test in GraphPad, Prism software. […] In addition, EC50 values were calculated to estimate the half maximal cytotoxic effect after each time point.

MCF-7 cells = assay: Imaging of treated cells by light microscopy, MCF-7; assay type: cell-based, Human; conditions: 200 or 400 μg/mL, 48 h, light microscope
Experimental: (§4) The cells were observed under the light microscope after each time point to evaluate the morphological changes and study the NPs effect on cell proliferation without fixation. The images were taken by light microscope (TS100F Eclipse, Nikon, Tokyo, Japan) that can work with a digital camera and combined with its Nikon microscope program.
(§5) The effect of nanocomposites on cell morphology was imaged by using a light microscope after each time point. MCF-7 cells and HFF-1 cells were treated with either 200 or 400 μg/mL for 48 h to evaluate the average morphological changes. […] In the microscopy images, the magnification was ×100 and the scale bar represents 100 μm.

HFF-1 cells = assay: Imaging of treated cells by light microscopy, HFF-1; assay type: cell-based, Human; conditions: 200 or 400 μg/mL, 48 h, light microscope
Experimental: as §4, §5

Row | Structure (SMILES) | EC50 Value of treated HFF-1 cells, 24 h ([1]; HFF-1, MTT, 24 h treatment) [µg/mL] | EC50 Value of treated HFF-1 cells, 48 h ([1]; HFF-1, MTT, 48 h treatment) [µg/mL] | EC50 Value of treated HFF-1 cells, 72 h ([1]; HFF-1, MTT, 72 h treatment) [µg/mL] | EC50 Value of treated MCF-7 cells, 24 h ([2]; MCF-7, MTT, 24 h treatment) [µg/mL] | EC50 Value of treated MCF-7 cells, 48 h ([2]; MCF-7, MTT, 48 h treatment) [µg/mL] | EC50 Value of treated MCF-7 cells, 72 h ([2]; MCF-7, MTT, 72 h treatment) [µg/mL] | effect on cell morphology and proliferation, MCF-7 (MCF-7 cells) | effect on cell morphology and proliferation, HFF-1 (HFF-1 cells) | cytotoxic efficacy against HFF-1 cells (in words) ([1]; MTT, 24-72 h) | cytotoxic efficacy against MCF-7 cells (in words) ([2]; MTT, 24-72 h)
1 | N.N.[Cl][Pt][Cl] [cisplatin] | 52.3 | 12.62 | 6.58 | 21.58 | 8.03 | 3.12 | cell death morphological structures | cell death morphological structures | – | –
2 | COc1cc(/C=C/C(=O)CC(=O)/C=C/c2ccc(O)c(OC)c2)ccc1O [curcumin] | – | – | – | – | – | – | slightly affected | slightly affected | less efficacy | lowest efficacy with high cell viability percentages; also recorded: rapidly enhanced the cell growth
